How the values were obtained:
[1] = Microparticle drug loading / loading efficiency; format: physicochemical; settings: for incorporation of inhibitor (adequacy): PLGA
Protocol: (§1) FIG. 6: Flavopiridol was encapsulated at 1% w/v ratio in PLGA microparticles (MPs) synthesized using Purasorb® PDLG 5004A (Corbion) in methylene chloride at 20% w/v ratio and vortexed vigorously for 30 seconds after addition of polyvinyl alcohol (10%) at 2:1 ratio. The solution was then added dropwise to 1% PVA and mixed overnight, with 3× washes next day and lyophilized overnight. […] FIG. 6B: Linear standard curve for different concentrations of flavopiridol in solution of dissolved PLGA in DMSO acquired with Nanodrop 2000 Spectrophotometer at 274 nm. […] FIG. 6D: SEM image of flavopiridol MPs using a Phillips XL30 Microscope.
Preparation of poly(lactic-co-glycolic) acid (PLGA) or polycaprolactone (PCL) particles with CDK9 inhibitors was performed using a single emulsion-solvent evaporation technique. Briefly, 500 mg of PLGA or PCL was dissolved in 2.5 mL of 2% v/v dimethylsulfoxide in methylene chloride (for PLGA) or chloroform (for PCL). […] The solutions were vortexed at full speed (30 seconds for PLGA or 45 seconds for PCL) to form microparticles. The microparticle suspensions were transferred to 150 mL of 1% poly(vinyl alcohol), and stirred for 24 hours. The particles were pelleted, washed with water, lyophilized and stored at −20° C. for further use. Size distribution was measured using an AccuSizer model 770 optical particle sizer (Particle Sizing Systems).
For example, SNS-032 has a 30.7% loading efficiency, such that of the 2 g of starting SNS-032, about 0.61 g was encapsulated in the PLGA microparticles. Lower amounts of drug encapsulation result in less inhibitor per microparticle. If the loading efficiency decreases below a certain threshold, the amount of microparticles required to deliver a therapeutic dose of the CDK9 inhibitor can become prohibitive (for cost, efficiency, injection volume, and potentially, an adverse reaction of the treated subject to the administered microparticles).

[2] = In vitro release of CDK9 inhibitor from microparticles in PBS-Tween; format: physicochemical; settings: PLGA
Protocol: as §1
Flavopiridol release from the particles was quantified over 42 days in PBS-Tween®, by absorbance at 247 nm.
(B) Release: The release characteristics of the microparticles prepared above were determined using the procedure set forth in Example 2.

[3] = as above; format: physicochemical; settings: PCL
NFκB target genes = assay: Gene expression in primary human chondrocytes treated with IL-1β with or without flavopiridol; format: cell-based
Excerpt: CDK9 inhibition effectively suppresses the transcription of primary inflammatory response genes.
CDK9 inhibitors exert effects on the inflammatory response pathway.

ACL-rupture in mice = assay: Primary response gene mRNA expression after ACL-rupture knee injury, systemic flavopiridol; format: in vivo

Compound	incorporation of inhibitor (adequacy) [1]	incorporation of inhibitor (adequacy) ([1]; listed as dinaciclib)	% loading efficiency ([1]; PCL microparticles) [%]	% loading efficiency ([1]; PLGA microparticles) [%]	amount encapsulated in the PLGA microparticles ([1]; of the 2 g of starting SNS-032)	% release ([2]; Day 1) [%]	% release ([2]; Day 3) [%]	% release ([2]; Day 5) [%]	% release ([3]; Day 3) [%]	% release ([3]; Day 7) [%]	average magnitude of repression (of maximum induction) of IL-1β-induced genes (NFκB target genes; 300 nM flavopiridol, 10 ng/mL IL-1β, 5 hours) [%]	number of IL-1β-induced genes repressed by flavopiridol co-treatment (NFκB target genes; of 67 genes induced by IL-1β (84 NFκB target genes tested))	repeated versus single administration (IL-1β, IL-6 gene expression) (ACL-rupture in mice; 0, 1, or 2 administrations)	mRNA expression of pro-inflammatory cytokines IL-1β and IL-6 at the injured site (ACL-rupture in mice; 4-8 hours post-injury, intraperitoneal injection)	window after injury during which flavopiridol is effective at preventing transcription of primary response genes (ACL-rupture in mice; delay before administration)	house-keeping gene 18S rRNA, Collagen Type 2 and aggrecan expression (ACL-rupture in mice; mouse, in vivo)
CCc1cnn2c(NCc3ccc[n+]([O-])c3)cc(N3CCCC[C@H]3CCO)nc12 [Dinaciclib]	not encapsulated effectively	failed to incorporate an adequate amount	–	–	–	–	–	–	–	–	–	–	–	–	–	–
CC(C)(C)c1cnc(CSc2cnc(NC(=O)C3CCNCC3)s2)o1 [SNS-032]	–	–	0.3	30.7	about 0.61 g	4.0	5.4	7.0	0	0	–	–	–	–	–	–
CN1CC[C@H](c2c(O)cc(O)c3c(=O)cc(-c4ccccc4Cl)oc23)[C@H](O)C1 [flavopiridol, 2-(2-chlorophenyl)-5,7-dihydroxy-8-[(3S,4R)-3-hydroxy-1-methyl-4-piperidinyl]-4-chromenone]	–	–	–	–	–	–	–	–	–	–	> 86	59	more effective than a single administration	effectively and selectively suppressed	at least 3 hours	not affected
Voruciclib	–	–	1.1	59.9	–	3.4	4.8	6.5	0.36	0.43	–	–	–	–	–	–

— patent publication US20220175750A1, “SUSTAINED RELEASE FORMULATION FOR LOCAL DELIVERY OF CDK9 INHIBITORS” (The Regents of the University of California, priority 2019, published 2022)
